Results as given in US20260022143A1, “Cyclic Peptide Inhibitors of IL-23” (JANSSEN PHARMACEUTICA NV, priority 2022, published 2026).
Starred links: 1 amine or outer side, 2 acyl side, 3 side chain; linkers in the order of their positions; H or OH if unused. Positions of bridges follow the written chain, without caps; N, C: chain ends. Non-standard residues stand in square brackets, D forms with d. Residues, ends and D or L forms follow the SMILES beside them. Groups on a side chain read outwards from the residue. *: point of attachment. Me3N+(CH2)2O(CH2)2O(CH2)2CO = C[N+](C)(C)CCOCCOCCC(=O)*; CH2CH2OCH2CH2OCH2CH2NMe3+ = C[N+](C)(C)CCOCCOCC*; Trp(7-Me) = Cc1cccc2c(C[C@H](N)C(=O)O)c[nH]c12; d(hLys(Me3)) = C[N+](C)(C)CCCCC[C@@H](N)C(=O)O; CH2CH2OCH2CH2NMe3+ = C[N+](C)(C)CCOCC*; γGlu = O=C(O)[C@H](CCC(=O)[*:2])N[*:1]; 2Nal = N[C@@H](Cc1ccc2ccccc2c1)C(=O)O; 3Pal = N[C@@H](Cc1cccnc1)C(=O)O; Myristoyl = CCCCCCCCCCCCCC(=O)*; Lys(Me) = CNCCCC[C@H](N)C(=O)O; NMeK = CN[C@@H](CCCCN)C(=O)O; Pen = CC(C)(S)[C@H](N)C(=O)O; Lauroyl = CCCCCCCCCCCC(=O)*; Thp = NC1(C(=O)O)CCOCC1; X3 = C[N+](C)(C)CCCCC*; AEEA = NCCOCCOCC(=O)O; Sar = CNCC(=O)O

Experiment: Exposed Polar Surface Area (EPSA)
Type: physicochemical
Conditions: SFC on Chirex 3014 column; sample 1 mM DMSO stock; read-out: EPSA
How it was run: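 Polarity measured by SFC on a Chirex 3014 column (35 °C, 4 mL/min) with methanol/ammonium formate in CO2 as gradient eluent. Retention times were normalised to EPSA (Å^2) against eight reference compounds.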

Row | SMILES | EPSA
1 | CCCCCCCCCCCCCC(=O)N[C@@H](CCC(=O)NCCOCCOCC(=O)NCCOCCOCC(=O)NCCCC[C@@H](NC(=O)CCOCCOCC[N+](C)(C)C)C(=O)N[C@@H]1C(=O)N[C@@H](CC(=O)N(C)C)C(=O)N[C@@H]([C@@H](C)O)C(=O)N[C@@H](Cc2c[nH]c3c(C)cccc23)C(=O)N[C@@H](CCCCNC(C)=O)C(=O)N[C@H](C(=O)N[C@@H](Cc2ccc(OCCCCC[N+](C)(C)C)cc2)C(=O)N[C@@H](Cc2ccc3ccccc3c2)C(=O)NC2(C(=O)N[C@@H](CCCCN(C)C(C)=O)C(=O)N[C@@H](CC(N)=O)C(=O)N[C@@H](Cc3cccnc3)C(=O)N(C)[C@@H](CCCCNC(=O)COCCOCCNC(=O)COCCOCCNC(=O)CC[C@H](NC(=O)CCCCCCCCCCCCC)C(=O)O)C(N)=O)CCOCC2)C(C)(C)SSC1(C)C)C(=O)O [compound 347, cPEG3aCO-k(PEG2PEG2gEC14)-Pen(3)-N(N(Me)2)-T-7MeW-K(Ac)-Pen(3)-TMAPF-2Nal-THP-K(NMeac)-N-3Pya-NMeK(PEG2PEG2gEC14)-CONH2] ({Me3N+(CH2)2O(CH2)2O(CH2)2CO}-[dK]([AEEA-AEEA-γGlu-Myristoyl])[Pen]D(NMe2)T[Trp(7-Me)]K(Ac)[Pen]Y(X3)[2Nal][Thp][Lys(Me)](Ac)N[3Pal][NMeK]([AEEA-AEEA-γGlu-Myristoyl])-NH2; disulfide 2-7) | 187 A^2
2 | CCCCCCCCCCCC(=O)N[C@@H](CCC(=O)NCCOCCOCC(=O)NCCOCCOCC(=O)NCCCC[C@@H](NC(=O)CCOCCOCC[N+](C)(C)C)C(=O)N[C@@H]1C(=O)N[C@@H](CC(=O)N(C)C)C(=O)N[C@@H]([C@@H](C)O)C(=O)N[C@@H](Cc2c[nH]c3c(C)cccc23)C(=O)N[C@@H](CCCCNC(C)=O)C(=O)N[C@H](C(=O)N[C@@H](Cc2ccc(OCCCCC[N+](C)(C)C)cc2)C(=O)N[C@@H](Cc2ccc3ccccc3c2)C(=O)NC2(C(=O)N[C@@H](CCCCN(C)C(C)=O)C(=O)N[C@@H](CC(N)=O)C(=O)N[C@@H](Cc3cccnc3)C(=O)N(C)[C@@H](CCCCNC(=O)COCCOCCNC(=O)COCCOCCNC(=O)CC[C@H](NC(=O)CCCCCCCCCCC)C(=O)O)C(N)=O)CCOCC2)C(C)(C)SSC1(C)C)C(=O)O [compound 348, cPEG3aCO-k(PEG2PEG2gEC12)-Pen(3)-N(N(Me)2)-T-7MeW-K(Ac)-Pen(3)-TMAPF-2Nal-THP-K(NMeac)-N-3Pya-NMeK(PEG2PEG2gEC12)-CONH2] ({Me3N+(CH2)2O(CH2)2O(CH2)2CO}-[dK]([AEEA-AEEA-γGlu-Lauroyl])[Pen]D(NMe2)T[Trp(7-Me)]K(Ac)[Pen]Y(X3)[2Nal][Thp][Lys(Me)](Ac)N[3Pal][NMeK]([AEEA-AEEA-γGlu-Lauroyl])-NH2; disulfide 2-7) | 184 A^2
3 | CC(=O)N(C)CCCC[C@@H]1NC(=O)[C@H](Cc2c[nH]c3c(C)cccc23)NC(=O)[C@H]([C@@H](C)O)NC(=O)[C@H](CC(=O)N(C)C)NC(=O)[C@@H](NC(=O)CCOCCOCC[N+](C)(C)C)C(C)(C)SSC(C)(C)[C@@H](C(=O)N[C@@H](Cc2ccc(OCCOCCOCC[N+](C)(C)C)cc2)C(=O)N[C@@H](Cc2ccc3ccccc3c2)C(=O)NC2(C(=O)N[C@@H](CCCCN(C)C(C)=O)C(=O)N[C@@H](CC(N)=O)C(=O)N[C@@H](Cc3cccnc3)C(=O)N(C)CC(N)=O)CCOCC2)NC1=O [compound 363, cPEG3aCO-Pen(3)-N(N(Me)2)-T-7MeW-K(NMeAc)-Pen(3)-APEG3F-2Nal-THP-K(NMeAc)-N-3Pya-Sar-CONH2] ({Me3N+(CH2)2O(CH2)2O(CH2)2CO}-[Pen]D(NMe2)T[Trp(7-Me)][Lys(Me)](Ac)[Pen]Y(CH2CH2OCH2CH2OCH2CH2NMe3+)[2Nal][Thp][Lys(Me)](Ac)N[3Pal][Sar]-NH2; disulfide 1-6) | 155 A^2
4 | CC(=O)N[C@@H]1C(=O)N[C@@H](COCCOCC[N+](C)(C)C)C(=O)N[C@@H]([C@@H](C)O)C(=O)N[C@@H](Cc2c[nH]c3c(C)cccc23)C(=O)N[C@@H](CCCCN(C)C(C)=O)C(=O)N[C@H](C(=O)N[C@@H](Cc2ccc(OCCOCCOCC[N+](C)(C)C)cc2)C(=O)N[C@@H](Cc2ccc3ccccc3c2)C(=O)NC2(C(=O)N[C@@H](CCCCN(C)C(C)=O)C(=O)N[C@@H](CC(N)=O)C(=O)N[C@@H](Cc3cccnc3)C(=O)N(C)CC(=O)N(C)C)CCOCC2)C(C)(C)SSC1(C)C [compound 365] (Ac-[Pen]S(CH2CH2OCH2CH2NMe3+)T[Trp(7-Me)][Lys(Me)](Ac)[Pen]Y(CH2CH2OCH2CH2OCH2CH2NMe3+)[2Nal][Thp][Lys(Me)](Ac)N[3Pal][Sar]-NMe2; disulfide 1-6) | 150 A^2
5 | CCCCCCCCCCCCCC(=O)N[C@@H](CCC(=O)NCCOCCOCC(=O)NCCOCCOCC(=O)NCCCC[C@@H]1NC(=O)[C@@H](NC(=O)[C@@H](CCCCC[N+](C)(C)C)NC(=O)COCCOCCNC(=O)COCCOCCNC(=O)CC[C@H](NC(=O)CCCCCCCCCCCCC)C(=O)O)C(C)(C)SSC(C)(C)[C@@H](C(=O)N[C@@H](Cc2ccc(OCCCCC[N+](C)(C)C)cc2)C(=O)N[C@@H](Cc2ccc3ccccc3c2)C(=O)NC2(C(=O)N[C@@H](CCCCN(C)C(C)=O)C(=O)N[C@@H](CC(N)=O)C(=O)N[C@@H](Cc3cccnc3)C(=O)N(C)CC(=O)N(C)C)CCOCC2)NC(=O)[C@H](CCCCN(C)C(C)=O)NC(=O)[C@H](Cc2c[nH]c3c(C)cccc23)NC(=O)[C@H]([C@@H](C)O)NC1=O)C(=O)O [compound 374, C14gEPEG2PEG2CO-hk(Me)3-Pen(3)-K(PEG2PEG2gEC14)-T-7MeW-K(NMeAc)-Pen(3)-TMAPF-2Nal-THP-K(NMeAc)-N-3Pya-Sar-CON(Me)2] ({Myristoyl-γGlu-AEEA-AEEA}-[d(hLys(Me3))][Pen]K([AEEA-AEEA-γGlu-Myristoyl])T[Trp(7-Me)][Lys(Me)](Ac)[Pen]Y(X3)[2Nal][Thp][Lys(Me)](Ac)N[3Pal][Sar]-NMe2; disulfide 2-7) | 170 A^2

Other lines, results leading:

Row | EPSA | SMILES
6 | 184 A^2 | CCCCCCCCCCCCCC(=O)N[C@@H](CCC(=O)NCCOCCOCC(=O)NCCOCCOCC(=O)NCCCC[C@H](NC(=O)C1(NC(=O)[C@H](Cc2ccc3ccccc3c2)NC(=O)[C@H](Cc2ccc(OCCCCC[N+](C)(C)C)cc2)NC(=O)[C@H]2NC(=O)[C@H](CCCCNC(C)=O)NC(=O)[C@H](Cc3c[nH]c4c(C)cccc34)NC(=O)[C@H]([C@@H](C)O)NC(=O)[C@H](CC(=O)N(C)C)NC(=O)[C@@H](NC(=O)CCOCCOCC[N+](C)(C)C)C(C)(C)SSC2(C)C)CCOCC1)C(=O)N[C@@H](CC(N)=O)C(=O)N[C@@H](Cc1cccnc1)C(=O)N(C)[C@@H](CCCCNC(=O)COCCOCCNC(=O)COCCOCCNC(=O)CC[C@H](NC(=O)CCCCCCCCCCCCC)C(=O)O)C(N)=O)C(=O)O [compound 351, cPEG3aCO-Pen(3)-N(N(Me)2)-T-7MeW-K(Ac)-Pen(3)-TMAPF-2Nal-THP-K(PEG2PEG2gEC14)-N-3Pya-NMeK(PEG2PEG2gEC14)-CONH2] ({Me3N+(CH2)2O(CH2)2O(CH2)2CO}-[Pen]D(NMe2)T[Trp(7-Me)]K(Ac)[Pen]Y(X3)[2Nal][Thp]K([AEEA-AEEA-γGlu-Myristoyl])N[3Pal][NMeK]([AEEA-AEEA-γGlu-Myristoyl])-NH2; disulfide 1-6)
7 | 186 A^2 | CCCCCCCCCCCCCC(=O)N[C@@H](CCC(=O)NCCOCCOCC(=O)NCCOCCOCC(=O)NCCCC[C@@H]1NC(=O)[C@H](Cc2c[nH]c3c(C)cccc23)NC(=O)[C@H]([C@@H](C)O)NC(=O)[C@H](CC(=O)N(C)C)NC(=O)[C@@H](NC(=O)CCOCCOCC[N+](C)(C)C)C(C)(C)SSC(C)(C)[C@@H](C(=O)N[C@@H](Cc2ccc(OCCCCC[N+](C)(C)C)cc2)C(=O)N[C@@H](Cc2ccc3ccccc3c2)C(=O)NC2(C(=O)N[C@@H](CCCCN(C)C(C)=O)C(=O)N[C@@H](CC(N)=O)C(=O)N[C@@H](Cc3cccnc3)C(=O)N(C)[C@@H](CCCCNC(=O)COCCOCCNC(=O)COCCOCCNC(=O)CC[C@H](NC(=O)CCCCCCCCCCCCC)C(=O)O)C(N)=O)CCOCC2)NC1=O)C(=O)O [compound 355, cPEG3aCO-Pen(3)-N(N(Me)2)-T-7MeW-K(PEG2PEG2gEC14)-Pen(3)-TMAPF-2Nal-THP-K(NMeac)-N-3Pya-NMeK(PEG2PEG2gEC14)-CONH2] ({Me3N+(CH2)2O(CH2)2O(CH2)2CO}-[Pen]D(NMe2)T[Trp(7-Me)]K([AEEA-AEEA-γGlu-Myristoyl])[Pen]Y(X3)[2Nal][Thp][Lys(Me)](Ac)N[3Pal][NMeK]([AEEA-AEEA-γGlu-Myristoyl])-NH2; disulfide 1-6)
8 | 181 A^2 | CCCCCCCCCCCCCC(=O)N[C@@H](CCC(=O)NCCOCCOCC(=O)NCCOCCOCC(=O)NCCCC[C@@H]1NC(=O)[C@@H](NC(=O)CCOCCOCC[N+](C)(C)C)C(C)(C)SSC(C)(C)[C@@H](C(=O)N[C@@H](Cc2ccc(OCCCCC[N+](C)(C)C)cc2)C(=O)N[C@@H](Cc2ccc3ccccc3c2)C(=O)NC2(C(=O)N[C@@H](CCCCN(C)C(C)=O)C(=O)N[C@@H](CC(N)=O)C(=O)N[C@@H](Cc3cccnc3)C(=O)N(C)[C@@H](CCCCNC(=O)COCCOCCNC(=O)COCCOCCNC(=O)CC[C@H](NC(=O)CCCCCCCCCCCCC)C(=O)O)C(N)=O)CCOCC2)NC(=O)[C@H](CCCCNC(C)=O)NC(=O)[C@H](Cc2c[nH]c3c(C)cccc23)NC(=O)[C@H]([C@@H](C)O)NC1=O)C(=O)O [compound 357, cPEG3aCO-Pen(3)-K(PEG2PEG2gEC14)-T-7MeW-K(Ac)-Pen(3)-TMAPF-2Nal-THP-K(NMeac)-N-3Pya-NMeK(PEG2PEG2gEC14)-CONH2] ({Me3N+(CH2)2O(CH2)2O(CH2)2CO}-[Pen]K([AEEA-AEEA-γGlu-Myristoyl])T[Trp(7-Me)]K(Ac)[Pen]Y(X3)[2Nal][Thp][Lys(Me)](Ac)N[3Pal][NMeK]([AEEA-AEEA-γGlu-Myristoyl])-NH2; disulfide 1-6)
